In this experiment the target is T1, Tyrosine-protein phosphatase non-receptor type 1 (Homo sapiens, UniProt P18031).
T1 sequence (P18031 whole entry): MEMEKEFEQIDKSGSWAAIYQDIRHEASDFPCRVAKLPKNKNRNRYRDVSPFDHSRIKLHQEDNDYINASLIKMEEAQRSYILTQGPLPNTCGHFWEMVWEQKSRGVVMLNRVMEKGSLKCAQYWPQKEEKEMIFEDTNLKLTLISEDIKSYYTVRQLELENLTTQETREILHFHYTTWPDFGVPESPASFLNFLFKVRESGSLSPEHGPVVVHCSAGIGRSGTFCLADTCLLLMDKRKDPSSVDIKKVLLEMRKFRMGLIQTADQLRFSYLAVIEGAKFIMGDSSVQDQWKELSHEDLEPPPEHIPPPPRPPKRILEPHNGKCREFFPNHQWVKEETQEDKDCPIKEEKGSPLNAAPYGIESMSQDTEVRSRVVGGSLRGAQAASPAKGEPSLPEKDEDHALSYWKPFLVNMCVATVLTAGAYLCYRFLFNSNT
The experiment can be described thus: The inhibitory activity tested against human Protein-tyrosine phosphatase 1B enzyme.

By IC50 is commonly meant the concentration needed to halve the response being measured. Lower therefore signals greater potency. `CC(C)=CCc1cc(C2CCc3ccc(O)cc3O2)cc(O)c1O` (centres undefined) returned an IC50 of 41.5 µM.

`C=CC(C)(C)c1c(O)cc(O)c2c(=O)c(O)c(-c3cc(O)c(O)c(CC=C(C)C)c3)oc12` returned an IC50 of 4.3 µM.

For `CC(C)=CCc1cc(C(=O)/C=C/c2ccc(O)c(O)c2)c(O)cc1O` [BROUSSOCHALCONE A], the half-inhibitory concentration (IC50) is 36.8 µM.

With `CC(C)=CCc1cc(-c2oc3cc(O)cc(O)c3c(=O)c2O)cc(O)c1O`, half-maximal inhibition (IC50) was put at 21.5 µM.

The values above are taken from ChEMBL document CHEMBL1134982, “Natural PTP1B inhibitors from Broussonetia papyrifera” (Bioorg Med Chem Lett, 2002).
